Source: PMC7073184, “The Major Cat Allergen Fel d 1 Binds Steroid and Fatty Acid Semiochemicals: A Combined In Silico and In Vitro Study” (International Journal of Molecular Sciences, 2020)
Like-named read-outs stand apart in the source and are kept apart here.

Key:
[1] = ref PubChem and ChemSpider; cited from earlier work
rFel d 1 [2] = target: T1, rFel d 1 (Felis catus, UniProt P30438+P30440); assay: 1-NPN binding to rFel d 1 (fluorescence titration); parameters: species or system cat
Description: To a 1-µM solution of the protein in 50 mM Tris-HCl, pH 7.4, aliquots of 1 mM solution of 1-NPN in methanol were added to final concentrations of 1–20 µM. (a) The representative emission curves experimentally obtained. […] (b) The saturation binding curve obtained from the average of three experiments.
N-Phenyl-1-naphthylamine (1-NPN) was used as a non-polar fluorescent probe in competitive binding experiments with the ligands (Sigma, France) to investigate binding efficiency of semiochemical analogs with pure rFel d 1 (INDOOR Biotechnologies, UK) [30]. The fluorescence experiments were performed on an FP-750 spectrofluorometer (JASCO, Japan) instrument at 25 °C in a right-angle configuration with a 1 cm light path fluorimeter quartz cuvette and 5-nm slits for both excitation and emission. The probe 1-NPN was excited at 337 nm and emission spectra were recorded between 380 and 450 nm, at 25 °C. The protein was dissolved in 50 mM Tris-HCl, pH 7.4, and ligands were added as 1 mM methanol solutions.
The binding of 1-NPN to rFel d 1 was tested at two protein concentrations (1 µM and 2 µM) by titrating the protein solution with aliquots of a 1-mM solution of 1-NPN in methanol to final concentrations of 1–20 µM. The bound ligand was evaluated from the values of fluorescence intensity assuming that the protein was 100% active, with a stoichiometry of 1:1 protein: ligand. […]

rFel d 1 [3] = target: T1, rFel d 1; assay: 1-NPN displacement screening (fluorescence); format: binding, cat; settings: 1 µM rFel d 1, 1 μM 1-NPN, 2 µM competitive ligand
Description: (§1) N-Phenyl-1-naphthylamine (1-NPN) was used as a non-polar fluorescent probe in competitive binding experiments with the ligands (Sigma, France) to investigate binding efficiency of semiochemical analogs with pure rFel d 1 (INDOOR Biotechnologies, UK). The fluorescence experiments were performed on an FP-750 spectrofluorometer (JASCO, Japan) instrument at 25 °C in a right-angle configuration with a 1 cm light path fluorimeter quartz cuvette and 5-nm slits for both excitation and emission. The probe 1-NPN was excited at 337 nm and emission spectra were recorded between 380 and 450 nm, at 25 °C. The protein was dissolved in 50 mM Tris-HCl, pH 7.4, and ligands were added as 1 mM methanol solutions.
(§2) Semiochemicals were first screened for their capabilities to bind rFel d 1 using 1 µM of rFel d 1, 1 μM of 1-NPN, and 2 µM of a competitive ligand. […] IC50 was graphically determined from the dose–response curve of each competitor ligand.

rFel d 1 [4] = target: T1, rFel d 1; assay: Competitive binding assay with the fluorescent probe 1-NPN; parameters: species or system cat; settings: for IC50: 1 µM rFel d 1, 2 μM 1-NPN, 25 °C, 50 mM Tris-HCl pH 7.4, competitor 0–16 μM; for Kd: calculated from IC50 with K1-NPN […]
Description: Figure 2 Competitive binding of selected fatty acids (a) and steroids (b) to rFel d 1. […] Fluorescence of probe-protein complexes in the absence of a competitor was normalized to 100%.
as §1, §2

T1 sequence (P30440 18-109): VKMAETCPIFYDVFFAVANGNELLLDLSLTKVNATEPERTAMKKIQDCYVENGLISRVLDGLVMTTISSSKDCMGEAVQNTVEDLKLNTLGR
T1 sequence (P30438 23-92): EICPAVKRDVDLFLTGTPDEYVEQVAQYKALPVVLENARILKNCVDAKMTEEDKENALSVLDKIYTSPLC

Compound	Topological Polar Surface Area [1]	1-NPN Displacement Screening (rFel d 1 [3])	other results
c1ccc(Nc2cccc3ccccc23)cc1 [1-NPN, N-phenyl-1-naphthylamine, reference compound]	12 Å²	–	Kd (rFel d 1 [2]; 1 µM rFel d 1, 50 mM Tris-HCl pH 7.4, 1-NPN 1–20 µM, average of three experiments, read-out: dissociation constant of 1-NPN (GraphPad)): 5.8 µM; Kd (rFel d 1 [2]; 1 µM rFel d 1, Scatchard plot, read-out: dissociation constant K1-NPN (Scatchard analysis)): 4.8 µM
C[C@]12CCC(=O)C=C1CC[C@@H]1[C@@H]2CC[C@]2(C)C(=O)CC[C@@H]12 [Androstenedione]	34.1 Å²	Yes	–
C[C@]12CC[C@@H](O)C[C@@H]1CC[C@@H]1[C@@H]2CC[C@]2(C)C=CC[C@@H]12 [Androstenol]	20.2 Å²	No	–
CC12C=CCC1C1CCC3CC(=O)CCC3(C)C1CC2 (centres unmarked) [Androstenone]	17.1 Å²	Yes	IC50 (rFel d 1 [4]; read-out: IC50): 3.1 µM; Kd (rFel d 1 [4]; read-out: Kd): 2.4 µM
CCCCCCCCCC(=O)O [Capric acid]	–	No	–
C[C@]12C[C@H](O)[C@H]3[C@@H](CCC4=CC(=O)CC[C@@]43C)[C@@H]1CC[C@@H]2C(=O)CO [Corticosterone]	74.6 Å²	No	–
C[C@]12CC[C@H](O)CC1=CC[C@@H]1[C@@H]2CC[C@]2(C)C(=O)CC[C@@H]12 [Dehydroepiandrosterone (DHEA), Dehydroepiandrosterone]	37.3 Å²	Yes	–
C[C@]12CCC(=O)C[C@@H]1CC[C@@H]1[C@@H]2CC[C@]2(C)[C@@H](O)CC[C@@H]12 [Dihydrotestosterone]	37.3 Å²	No	–
CCCCCCCCCCCC=O [Dodecanal]	17.1 Å²	No	–
CCCCCCCCCCCCO [Dodecanol]	20.2 Å²	No	–
C[C@]12CC[C@@H]3c4ccc(O)cc4CC[C@H]3[C@@H]1CC[C@@H]2O [Estradiol]	40.5 Å²	Yes	–
C[C@]12CC[C@@H]3c4ccc(O)cc4CC[C@H]3[C@@H]1CCC2=O [Estrone]	–	Yes	–
CCCCCCCCCCCC(=O)OCC [Ethyl Laurate]	26.3 Å²	No	–
CCCCCCCCCCCCCCCC(N)=O [Hexadecanamide]	43.1 Å²	–	–
CC(=O)[C@@]1(O)CC[C@H]2[C@@H]3CCC4=CC(=O)CC[C@]4(C)[C@H]3CC[C@@]21C [Hydroxyprogesterone]	54.4 Å²	Yes	–
CC(C)C(=O)O [Isobutyric acid]	37.3 Å²	–	–
CCCCCCCCCCCC(=O)O [Lauric acid]	37.3 Å²	Yes	IC50 (rFel d 1 [4]): 3.3 µM; Kd (rFel d 1 [4]): 2.6 µM
CCCCC/C=C\C/C=C\CCCCCCCC(=O)O [Linoleic acid]	37.3 Å²	Yes	IC50 (rFel d 1 [4]): 10.1 µM; Kd (rFel d 1 [4]): 7.8 µM
CCCCCCCCCCCCCCCC(=O)OC [Methyl Palmitate]	26.3 Å²	No	–
CCCCCCCCCCCCCC(=O)O [Myristic acid]	37.3 Å²	Yes	IC50 (rFel d 1 [4]): 14.4 µM; Kd (rFel d 1 [4]): 11.1 µM
CCCCCCCCC(N)=O [Nonanamide]	43.1 Å²	–	–
CCCCCCCCCCCCCCCCCC(N)=O [Octadecanamide]	43.1 Å²	–	–
CCCCCCCC/C=C\CCCCCCCC(=O)O [Oleic acid]	37.3 Å²	Yes	IC50 (rFel d 1 [4]): 10 µM; Kd (rFel d 1 [4]): 7.7 µM
CCCCCCCCCCCCCCCC(=O)O [Palmitic acid]	37.3 Å²	Yes	affinity to rFel d 1 in words (rFel d 1 [4]; competitive binding with 1-NPN, among the fatty acids): weakest ligand
CC(=O)[C@H]1CC[C@H]2[C@@H]3CC=C4C[C@@H](O)CC[C@]4(C)[C@H]3CC[C@]12C [Pregnenolone]	37.3 Å²	Yes	IC50 (rFel d 1 [4]; read-out: IC50): 13.1 µM; Kd (rFel d 1 [4]; read-out: Kd): 10.1 µM
CC(=O)[C@H]1CC[C@H]2[C@@H]3CCC4=CC(=O)CC[C@]4(C)[C@H]3CC[C@]12C [Progesterone]	34.1 Å²	Yes	IC50 (rFel d 1 [4]): 13.6 µM; Kd (rFel d 1 [4]): 10.5 µM
C[C@]12CC[C@H]3[C@@H](CCC4=CC(=O)CC[C@@]43C)[C@@H]1CC[C@@H]2O [Testosterone]	37.3 Å²	Yes	–
CCCCCCCCCCCCCCO [Tetradecanol]	20.2 Å²	No	–
Deoxycorticosterone	54.4 Å²	No	–
